Experimental data from patent US5888504A, “Natural composition for combatting fungi” (Van den Bergh Foods Co., Division of Conopco, Inc., priority 1995, dated 1999).
“Also recorded” adds a separate entry of the source.

Tests used:
Type in all cases: cell-based
Paecilomyces variotii [1] = assay: Extent of outgrowth of Paecilomyces variotii in malt extract broth in serum bottles; conditions: 1 μM carvacrol, absence of enzyme; observed during ten days
Description: Solutions (30 ml) were prepared containing […] dissolved in malt extract broth. Novozyme™234 was present in concentrations of 1, 0.1 and 0 mg/ml. For comparison a solution was prepared containing 1 mg/ml of Novozyme™, but without carvacrol and one in which both enzyme and carvacrol were absent. 50 ml serum bottles filled with the solutions were inoculated with 1000 spores of Paecilomyces variotii. The height of the bars of FIG. 5 indicates the extent of outgrowth of the fungi observed during ten days. The highest bars ("100") indicate full outgrowth of the fungi, which occurs in solutions without carvacrol and with 1 mg/ml or less enzyme. Observed growth inhibition is expressed by the "50" bars. The presence of 1 μM carvacrol causes inhibition of growth, even in the absence of enzyme. When 1 mg/ml of enzyme is present together with 1 μM of carvacrol even germination of the fungal spores ("25" bars) does no longer occurs.

Paecilomyces variotii [2] = assay: Outgrowth of Paecilomyces variotii spores, microtitre plate (Example 2 repeated); conditions: histatin without enzyme
Description: An aqueous solution (demineralised water) was prepared containing 0.2 wt. % of the antifungal substance NovoZyme™ 234 and 0.002 wt. % of histatin. 75 μl of the solution were warmed to 20° C. and added to the well of a microtitre plate. Then 75 μl of a solution containing 4 wt. % malt extract broth (ex Oxoid), 0.75 wt. % agar (ex Difco) and 1000 spores of the fungus Aspergillus niger was heated to 25° C. and added to the test solution in the well (pH 5.1). The procedure was repeated with solutions containing 0.004, 0.008, 0.016, 0.032 and 0.064 wt. % of histatin. The contents of the wells were thoroughly mixed and 75 μl of paraffin oil was loaded on top of the mixture. Finally, the plates were sealed with an oxygen permeable foil (Merlin). During 360 hours the OD 620 nm was measured at regular intervals using a Multiscan devise MCC 340. Fungal outgrowth was defined when an OD increase of at least 0.1 occurred.
Example 2 is repeated with the fungus Paecilomyces variotii.

Aspergillus niger = assay: Outgrowth of Aspergillus niger spores in malt extract broth/agar, microtitre plate, OD 620 nm; conditions: no enzyme
Description: An aqueous solution (demineralised water) was prepared containing 0.2 wt. % of the antifungal substance NovoZyme™ 234 and 0.002 wt. % of nisin. 75 μl of the solution were warmed to 20° C. and added to the well of a microtitre plate. Then 75 μl of a solution containing 4 wt. % of malt extract broth (ex Oxoid), 0.75 wt. % of agar (ex Difco) and 1000 spores of the fungus Aspergillus niger was heated to 25° C. and added to the test solution in the well (pH 5.1).
The procedure was repeated with solutions containing 0.004, 0.008, 0.016, 0.032 and 0.064 wt. % of nisin. The contents of the wells were thoroughly mixed and 75 μl of paraffin oil was loaded on top of the mixture. Finally, the plates were sealed with an oxygen permeable foil (Merlin).
During 360 hours the OD 620 nm was measured at regular intervals using a Multiscan devise MCC 340. Fungal outgrowth was defined when an OD (optical density) increase of at least 0.1 occurred.
[…] 75 μl of the solution were warmed to 20° C. and added to the well of a microtitre plate. Then 75 μl of a solution containing 4 wt. % malt extract broth (ex Oxoid), 0.75 wt. % agar (ex Difco) and 1000 spores of the fungus Aspergillus niger was heated to 25° C. and added to the test solution in the well (pH 5.1). […] During 360 hours the OD 620 nm was measured at regular intervals using a Multiscan devise MCC 340. […]

Penicillium roqueforti = assay: Outgrowth of Penicillium roqueforti inoculated on processed cheese; conditions: nisin 0.05 wt. % or NovoZyme 234 2 wt. % singly
Source text: The surface of processed cheese was inoculated in the centre with Penicillium roqueforti. Admixture of nisin of the lytic enzymes was done in a laminar air flow cabinet. The samples were observed during 16 days (see FIG. 7).
Fungal growth is expressed as the diameter of the colonies. When NovoZyme™ 234 (2 wt. %) was present fungal outgrowth was considerably delayed and became visible only after 12 days.

Compound: Cc1ccc(C(C)C)cc1O [carvacrol]
- extent of outgrowth (height of bar) (Paecilomyces variotii [1]): 50

Compound: histatin
- concentration at which fungal growth inhibition is shown (Paecilomyces variotii [2]): ≥ 0.004 wt. %
- retarding fungal growth (time needed for outgrowth) (Aspergillus niger; histatin 0 to 0.032 wt. %, particularly at 0.008 wt. % and higher): slightly active in retarding fungal growth

Compound: nisin
- effect on postponing the onset of fungal growth (time needed for outgrowth) (Aspergillus niger; nisin 0 to 0.032 wt. %, pH 5.1, followed 360 hours): no fungal growth inhibition has been observed; also recorded: no substantial effect
- time after which fungal outgrowth showed (Penicillium roqueforti): 4 days
